The results in this text go back to publication PMC10322970, “Modular synthesis of clickable peptides via late-stage maleimidation on C(7)-H tryptophan” (Nature Communications, 2023).

Series [1] in a line: Rh(III)-catalysed intramolecular C(7)-H maleimidation of N-pivaloyl Trp (oxidative Heck-type C-C bond, indole C7 to maleimide CH): [RhCp*Cl2]2 10 mol%, AgNTf2 40 mol%, Ag2O 1.5 eq. As to conditions: DCM, 12.0 mM, 80.0 °C, 24.0 h.
A further series deals with integrin αvβ3 (Homo sapiens, UniProt P05106+P06756). Description: SPR binding to immobilised integrin αvβ3. Particulars: for kon: read-out: ka. (Surface plasmon resonance follows binding to a sensor surface in real time, without labels.)
Sequence of integrin αvβ3 (P06756 31-1048): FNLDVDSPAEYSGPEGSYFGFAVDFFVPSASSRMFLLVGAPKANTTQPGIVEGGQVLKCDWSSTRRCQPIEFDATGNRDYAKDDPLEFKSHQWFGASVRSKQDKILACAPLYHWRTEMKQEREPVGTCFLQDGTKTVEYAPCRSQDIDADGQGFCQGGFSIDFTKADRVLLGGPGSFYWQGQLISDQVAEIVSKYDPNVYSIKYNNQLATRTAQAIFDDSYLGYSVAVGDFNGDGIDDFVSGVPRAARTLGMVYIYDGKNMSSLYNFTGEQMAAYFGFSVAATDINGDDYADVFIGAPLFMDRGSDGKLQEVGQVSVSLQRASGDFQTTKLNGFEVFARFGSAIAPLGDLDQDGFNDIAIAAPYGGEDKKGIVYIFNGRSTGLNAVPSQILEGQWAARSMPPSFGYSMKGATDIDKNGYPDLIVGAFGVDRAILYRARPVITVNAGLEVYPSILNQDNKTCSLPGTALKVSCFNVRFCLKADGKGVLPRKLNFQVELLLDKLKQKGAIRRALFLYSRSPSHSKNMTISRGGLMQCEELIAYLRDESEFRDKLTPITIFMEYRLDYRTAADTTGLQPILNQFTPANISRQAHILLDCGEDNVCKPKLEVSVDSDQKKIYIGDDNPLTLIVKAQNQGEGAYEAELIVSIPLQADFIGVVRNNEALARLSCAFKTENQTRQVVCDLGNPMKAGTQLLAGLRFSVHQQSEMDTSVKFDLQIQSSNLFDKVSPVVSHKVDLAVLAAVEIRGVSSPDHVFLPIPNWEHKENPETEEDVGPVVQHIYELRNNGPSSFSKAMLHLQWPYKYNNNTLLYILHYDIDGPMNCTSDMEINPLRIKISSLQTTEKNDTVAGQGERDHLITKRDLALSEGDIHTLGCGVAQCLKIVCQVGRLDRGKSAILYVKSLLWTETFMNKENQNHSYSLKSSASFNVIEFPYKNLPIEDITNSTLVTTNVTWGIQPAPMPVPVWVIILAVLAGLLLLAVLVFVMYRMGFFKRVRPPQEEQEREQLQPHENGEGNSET
Sequence of integrin αvβ3 (P05106 27-788): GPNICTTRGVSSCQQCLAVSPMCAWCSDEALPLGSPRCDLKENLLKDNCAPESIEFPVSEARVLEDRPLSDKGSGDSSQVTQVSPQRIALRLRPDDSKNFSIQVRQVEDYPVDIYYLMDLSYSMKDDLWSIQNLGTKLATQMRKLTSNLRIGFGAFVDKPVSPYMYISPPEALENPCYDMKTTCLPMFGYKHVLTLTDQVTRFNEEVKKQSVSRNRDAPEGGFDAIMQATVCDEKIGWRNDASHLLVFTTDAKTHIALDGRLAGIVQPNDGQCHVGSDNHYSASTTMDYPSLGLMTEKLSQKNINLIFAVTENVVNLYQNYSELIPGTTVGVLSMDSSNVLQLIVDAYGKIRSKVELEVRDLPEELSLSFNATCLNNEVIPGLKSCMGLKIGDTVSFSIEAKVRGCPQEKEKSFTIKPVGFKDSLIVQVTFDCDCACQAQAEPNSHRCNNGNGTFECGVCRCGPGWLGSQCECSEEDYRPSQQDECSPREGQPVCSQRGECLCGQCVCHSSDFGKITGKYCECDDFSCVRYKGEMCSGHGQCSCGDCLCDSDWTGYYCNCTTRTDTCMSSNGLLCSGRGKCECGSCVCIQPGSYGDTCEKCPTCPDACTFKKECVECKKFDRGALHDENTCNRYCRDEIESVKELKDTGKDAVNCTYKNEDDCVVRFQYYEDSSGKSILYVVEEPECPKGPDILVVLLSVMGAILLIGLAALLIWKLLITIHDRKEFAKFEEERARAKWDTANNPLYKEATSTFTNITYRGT
The target of the next series is integrin α5β1 (Homo sapiens, UniProt P05556+P08648). The experiment in a line: SPR binding to immobilised integrin α5β1. Particulars: for kon: read-out: ka.
Sequence of integrin α5β1 (P08648 42-1049): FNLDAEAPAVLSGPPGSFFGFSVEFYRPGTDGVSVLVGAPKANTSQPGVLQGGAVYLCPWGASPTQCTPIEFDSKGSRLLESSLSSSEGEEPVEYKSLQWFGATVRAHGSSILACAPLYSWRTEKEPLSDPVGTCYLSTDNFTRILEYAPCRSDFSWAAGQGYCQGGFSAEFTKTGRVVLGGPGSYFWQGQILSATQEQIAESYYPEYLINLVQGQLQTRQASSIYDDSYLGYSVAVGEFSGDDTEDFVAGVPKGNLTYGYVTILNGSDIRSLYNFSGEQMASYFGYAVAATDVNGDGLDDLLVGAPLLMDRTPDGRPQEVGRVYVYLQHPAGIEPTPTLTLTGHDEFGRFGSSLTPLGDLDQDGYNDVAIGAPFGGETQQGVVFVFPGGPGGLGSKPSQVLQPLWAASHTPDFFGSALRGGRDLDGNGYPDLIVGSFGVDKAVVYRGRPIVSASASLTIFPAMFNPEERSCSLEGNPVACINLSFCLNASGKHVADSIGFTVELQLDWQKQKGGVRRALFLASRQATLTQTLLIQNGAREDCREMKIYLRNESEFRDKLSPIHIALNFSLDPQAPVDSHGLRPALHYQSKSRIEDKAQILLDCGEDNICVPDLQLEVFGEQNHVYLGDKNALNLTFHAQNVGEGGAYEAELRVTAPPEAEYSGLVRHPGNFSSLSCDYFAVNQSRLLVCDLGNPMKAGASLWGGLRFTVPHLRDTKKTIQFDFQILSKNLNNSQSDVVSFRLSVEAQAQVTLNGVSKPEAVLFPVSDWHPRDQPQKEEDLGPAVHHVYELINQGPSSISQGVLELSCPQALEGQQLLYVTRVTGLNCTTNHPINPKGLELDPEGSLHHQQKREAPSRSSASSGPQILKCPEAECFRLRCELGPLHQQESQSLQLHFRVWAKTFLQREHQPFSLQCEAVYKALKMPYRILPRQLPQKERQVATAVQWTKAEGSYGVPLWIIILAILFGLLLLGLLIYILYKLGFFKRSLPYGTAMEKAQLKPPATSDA
Sequence of integrin α5β1 (P05556 21-798): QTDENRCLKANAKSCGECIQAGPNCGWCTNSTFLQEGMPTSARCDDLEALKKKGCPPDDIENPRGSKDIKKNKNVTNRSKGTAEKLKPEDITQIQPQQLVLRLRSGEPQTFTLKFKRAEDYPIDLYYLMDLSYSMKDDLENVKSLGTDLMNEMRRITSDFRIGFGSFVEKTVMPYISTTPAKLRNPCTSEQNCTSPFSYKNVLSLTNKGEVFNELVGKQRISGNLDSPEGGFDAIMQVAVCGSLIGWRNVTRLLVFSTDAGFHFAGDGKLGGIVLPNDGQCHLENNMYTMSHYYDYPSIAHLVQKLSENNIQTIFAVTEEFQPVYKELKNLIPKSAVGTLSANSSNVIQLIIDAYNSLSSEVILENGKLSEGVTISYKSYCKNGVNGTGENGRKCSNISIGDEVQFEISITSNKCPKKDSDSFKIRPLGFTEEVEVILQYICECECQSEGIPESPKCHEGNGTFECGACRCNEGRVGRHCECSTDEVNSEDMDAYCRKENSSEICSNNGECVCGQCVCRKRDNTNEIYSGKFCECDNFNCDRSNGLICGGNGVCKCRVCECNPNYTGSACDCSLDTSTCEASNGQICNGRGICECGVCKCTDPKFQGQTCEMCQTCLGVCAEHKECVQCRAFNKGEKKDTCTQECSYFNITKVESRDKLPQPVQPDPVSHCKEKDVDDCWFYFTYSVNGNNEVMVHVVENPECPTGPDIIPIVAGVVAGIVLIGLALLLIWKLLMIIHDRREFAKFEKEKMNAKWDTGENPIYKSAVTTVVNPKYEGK
The target in another series is integrin αvβ5 (Homo sapiens, UniProt P06756+P18084). Description: SPR binding to immobilised integrin αvβ5. Particulars: for kon: read-out: ka.
Sequence of integrin αvβ5 (P06756 31-1048): as the sequence (P06756 31-1048) above
Sequence of integrin αvβ5 (P18084 24-799): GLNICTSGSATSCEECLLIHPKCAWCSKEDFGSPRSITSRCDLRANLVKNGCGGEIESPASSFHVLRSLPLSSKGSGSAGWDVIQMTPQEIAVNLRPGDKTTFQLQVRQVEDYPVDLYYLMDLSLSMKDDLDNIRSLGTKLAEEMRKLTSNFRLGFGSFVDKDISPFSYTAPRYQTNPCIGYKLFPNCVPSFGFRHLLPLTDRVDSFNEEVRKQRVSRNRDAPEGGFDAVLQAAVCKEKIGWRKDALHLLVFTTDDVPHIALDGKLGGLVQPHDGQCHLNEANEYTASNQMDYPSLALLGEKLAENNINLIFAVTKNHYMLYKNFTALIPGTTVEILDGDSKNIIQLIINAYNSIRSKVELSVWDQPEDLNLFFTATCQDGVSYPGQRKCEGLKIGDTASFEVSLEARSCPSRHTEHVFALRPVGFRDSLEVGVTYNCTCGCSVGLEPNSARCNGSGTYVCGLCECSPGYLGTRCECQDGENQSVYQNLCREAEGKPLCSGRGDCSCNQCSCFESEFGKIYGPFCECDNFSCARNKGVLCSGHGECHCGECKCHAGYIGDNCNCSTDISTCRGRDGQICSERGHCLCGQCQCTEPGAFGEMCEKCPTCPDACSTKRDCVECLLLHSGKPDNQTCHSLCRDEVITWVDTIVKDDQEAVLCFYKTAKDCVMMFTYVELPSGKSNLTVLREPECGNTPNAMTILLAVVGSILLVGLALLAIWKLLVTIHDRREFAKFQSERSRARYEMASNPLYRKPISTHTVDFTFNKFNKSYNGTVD
The next series relates to LO2 cells. The experiment in a line: Cytotoxicity by MTT assay, LO2. Particulars: LO2 normal cells, 0–40 μM, 36 h. For orientation: Formazan colour is commonly taken as a measure of viable cells.
The test system of a further series is A549 cells. Description: Cytotoxicity by MTT assay, A549. Particulars: A549 (integrin αvβ3-positive), 0–40 μM, 36 h.
In a further series the test system is HeLa cells. The experiment in a line: Cytotoxicity by MTT assay, HeLa. As to conditions: HeLa (integrin αvβ3-negative), 0–40 μM, 36 h.
In the next series the test system is MIHA cells. Description: Cytotoxicity by MTT assay, MIHA. Particulars: MIHA normal cells, 0–40 μM, 36 h.
The subject of the next series is U87MG cells. Description: Cytotoxicity by MTT assay, U87MG. As to conditions: U87MG (integrin αvβ3-positive), 0–40 μM, 36 h.
In the next series the test system is MCF-7 cells. The experiment in a line: Cytotoxicity by MTT assay, MCF-7. Particulars: MCF-7 (integrin αvβ3-negative), 0–40 μM, 36 h.

As to `COC(=O)[C@@H]1Cc2cn(C(=O)C(C)(C)C)c3c(cccc23)C2=CC(=O)N(CCCCCC(=O)NC3(CCCC3)C(=O)N1)C2=O`, in series [1] (from COC(=O)[C@H](Cc1cn(C(=O)C(C)(C)C)c2ccccc12)NC(=O)C1(NC(=O)CCCCCN2C(=O)C=CC2=O)CCCC1, 20-membered ring), the ring closure, isolated yield is 0%.
In the case of `COC(=O)[C@@H]1Cc2cn(C(=O)C(C)(C)C)c3c(cccc23)C2=CC(=O)N(CCCC[C@H](NC(=O)OC(C)(C)C)C(=O)N[C@@H](CCCNC(=N)NS(=O)(=O)c3c(C)c(C)c4c(c3C)CC(C)(C)O4)C(=O)NCC(=O)N[C@@H](CC(=O)OC(C)(C)C)C(=O)NCC(=O)N1)C2=O`, the ring closure, isolated yield in [1] (from COC(=O)[C@H](Cc1cn(C(=O)C(C)(C)C)c2ccccc12)NC(=O)CNC(=O)[C@H](CC(=O)OC(C)(C)C)NC(=O)CNC(=O)[C@H](CCCNC(=N)NS(=O)(=O)c1c(C)c(C)c2c(c1C)CC(C)(C)O2)NC(=O)[C@H](CCCCN1C(=O)C=CC1=O)NC(=O)OC(C)(C)C, 29-membered ring) worked out at 32%.
With `COC(=O)[C@@H]1Cc2cn(C(=O)C(C)(C)C)c3c(cccc23)C2=CC(=O)N(CCC(=O)N[C@@H](CC(=O)OC(C)(C)C)C(=O)N[C@@H](C)C(=O)N[C@@H](C(C)C)C(=O)NCC(=O)N1)C2=O` [3-maleimidopropionyl-Asp(OtBu)-Ala-Val-Gly-Trp(Piv)-OMe], the ring closure, isolated yield in [1] (from COC(=O)[C@H](Cc1cn(C(=O)C(C)(C)C)c2ccccc12)NC(=O)CNC(=O)[C@@H](NC(=O)[C@H](C)NC(=O)[C@H](CC(=O)OC(C)(C)C)NC(=O)CCN1C(=O)C=CC1=O)C(C)C, 26-membered ring) is 43%.
In series [1] (from CC[C@H](C)[C@H](NC(=O)[C@H](Cc1ccccc1)NC(=O)[C@H](CCC(=O)OC(C)(C)C)NC(=O)CCN1C(=O)C=CC1=O)C(=O)NCC(=O)N[C@@H](Cc1cn(C(=O)C(C)(C)C)c2ccccc12)C(=O)OC, 26-membered ring), `CC[C@H](C)[C@@H]1NC(=O)[C@H](Cc2ccccc2)NC(=O)[C@H](CCC(=O)OC(C)(C)C)NC(=O)CCN2C(=O)C=C(C2=O)c2cccc3c(cn(C(=O)C(C)(C)C)c23)C[C@@H](C(=O)OC)NC(=O)CNC1=O` [3-maleimidopropionyl-Glu(OtBu)-Phe-Ile-Gly-Trp(Piv)-OMe] displayed a ring closure, isolated yield of 35%.
In [1] (from COC(=O)[C@H](Cc1cn(C(=O)C(C)(C)C)c2ccccc12)NC(=O)CNC(=O)[C@H](C)NC(=O)CCCCCN1C(=O)C=CC1=O, 23-membered ring), `COC(=O)[C@@H]1Cc2cn(C(=O)C(C)(C)C)c3c(cccc23)C2=CC(=O)N(CCCCCC(=O)N[C@@H](C)C(=O)NCC(=O)N1)C2=O` [6-maleimidohexanoyl-Ala-Gly-Trp(Piv)-OMe] showed a ring closure, isolated yield of 15%.
`COC(=O)[C@@H]1Cc2c[nH]c3c(cccc23)C2=CC(=O)N(CCCC[C@H](N)C(=O)N[C@@H](CCCNC(=N)N)C(=O)NCC(=O)N[C@@H](CC(=O)O)C(=O)NCC(=O)N1)C2=O` [10a]: the Kd on integrin αvβ3 came to 0.675 µM; at integrin α5β1 it was 8.36 µM; on integrin αvβ5 it was 6.13 µM. Further, the results for the kon at integrin αvβ3, on integrin α5β1 and at integrin αvβ5 were 42300 M⁻¹ s⁻¹, 15300 M⁻¹ s⁻¹ and 12500 M⁻¹ s⁻¹, respectively.
As for `N=C(N)NCCC[C@@H]1NC(=O)[C@H](CCCCNC(=S)Nc2ccc3c(c2)C(=O)OC32c3ccc(O)cc3Oc3cc(O)ccc32)NC(=O)[C@@H](Cc2ccccc2)NC(=O)[C@H](CC(=O)O)NC(=O)CNC1=O` [10c, cyclo-(RGDfK (FITC)), reference compound], the values for the Kd at integrin αvβ3, on integrin α5β1 and at integrin αvβ5 were 65.5 µM, 2.76 µM and 4.13 µM, respectively. For the same compound, the kon on integrin αvβ3 was determined as 10300 M⁻¹ s⁻¹; at integrin α5β1, 25400 M⁻¹ s⁻¹; at integrin αvβ5, 23400 M⁻¹ s⁻¹.
In series [1] (from COC(=O)[C@H](Cc1cn(C(=O)C(C)(C)C)c2ccccc12)NC(=O)CNC(=O)CNC(=O)CCCCCCCCCCN1C(=O)C=CC1=O, 28-membered ring), `COC(=O)[C@@H]1Cc2cn(C(=O)C(C)(C)C)c3c(cccc23)C2=CC(=O)N(CCCCCCCCCCC(=O)NCC(=O)NCC(=O)N1)C2=O` [11-maleimidoundecanoyl-Gly-Gly-Trp(Piv)-OMe] came in with a ring closure, isolated yield of 38%.
Take `COC(=O)[C@@H]1Cc2cn(C(=O)C(C)(C)C)c3c(cccc23)C2=CC(=O)N(CCCCCCCCCCC(=O)N1)C2=O` [11-maleimidoundecanoyl-Trp(Piv)-OMe]: the ring closure, isolated yield in series [1] (from COC(=O)[C@H](Cc1cn(C(=O)C(C)(C)C)c2ccccc12)NC(=O)CCCCCCCCCCN1C(=O)C=CC1=O, 22-membered ring) worked out at 22%.
Compound `COC(=O)[C@@H]1Cc2cn(C(=O)C(C)(C)C)c3c(cccc23)C2=CC(=O)N(CCCC[C@H](NC(=O)OC(C)(C)C)C(=O)N[C@@H](C)C(=O)N[C@@H](Cc3ccccc3)C(=O)N[C@@H](CC(C)C)C(=O)NCC(=O)N1)C2=O` [Boc-Lys(Nε-maleimide)-Ala-Phe-Leu-Gly-Trp(Piv)-OMe] showed a ring closure, isolated yield in series [1] (from COC(=O)[C@H](Cc1cn(C(=O)C(C)(C)C)c2ccccc12)NC(=O)CNC(=O)[C@H](CC(C)C)NC(=O)[C@H](Cc1ccccc1)NC(=O)[C@H](C)NC(=O)[C@H](CCCCN1C(=O)C=CC1=O)NC(=O)OC(C)(C)C, 29-membered ring) of 35%.
As to `CC[C@H](C)[C@@H]1NC(=O)[C@@H](NC(=O)OC(C)(C)C)CCCCN2C(=O)C=C(C2=O)c2cccc3c(cn(C(=O)C(C)(C)C)c23)C[C@@H](C(=O)N[C@H](C(=O)OC)[C@@H](C)CC)NC(=O)CNC(=O)[C@H](C)NC1=O` [Boc-Lys(Nε-maleimide)-Ile-Ala-Gly-Trp(Piv)-Ile-OMe], the ring closure, isolated yield in series [1] (from CC[C@H](C)[C@H](NC(=O)[C@H](CCCCN1C(=O)C=CC1=O)NC(=O)OC(C)(C)C)C(=O)N[C@@H](C)C(=O)NCC(=O)N[C@@H](Cc1cn(C(=O)C(C)(C)C)c2ccccc12)C(=O)N[C@H](C(=O)OC)[C@@H](C)CC, 26-membered ring) amounted to 32%.
The compound `COC(=O)[C@@H]1Cc2cn(C(=O)C(C)(C)C)c3c(cccc23)C2=CC(=O)N(CCCC[C@H](NC(=O)OC(C)(C)C)C(=O)N1)C2=O` [Boc-Lys(Nε-maleimide)-Trp(Piv)-OMe] came in with a ring closure, isolated yield in series [1] (from COC(=O)[C@H](Cc1cn(C(=O)C(C)(C)C)c2ccccc12)NC(=O)[C@H](CCCCN1C(=O)C=CC1=O)NC(=O)OC(C)(C)C, 17-membered ring) of 0%.
On to `COC(=O)[C@@H]1Cc2cn(C(=O)C(C)(C)C)c3c(cccc23)C2=CC(=O)N(CCCC[C@H](NC(=O)OC(C)(C)C)C(=O)N[C@@H](C(C)C)C(=O)N[C@@H](Cc3ccccc3)C(=O)NCC(=O)N1)C2=O` [Boc-Lys(Nε-maleimide)-Val-Phe-Gly-Trp(Piv)-OMe], for which the ring closure, isolated yield in [1] (from COC(=O)[C@H](Cc1cn(C(=O)C(C)(C)C)c2ccccc12)NC(=O)CNC(=O)[C@H](Cc1ccccc1)NC(=O)[C@@H](NC(=O)[C@H](CCCCN1C(=O)C=CC1=O)NC(=O)OC(C)(C)C)C(C)C, 26-membered ring) is 39%.
In series [1] (from CC[C@H](C)[C@H](NC(=O)[C@@H](NC(=O)[C@H](Cc1cn(C(=O)C(C)(C)C)c2ccccc12)NC(=O)OC(C)(C)C)C(C)(C)C)C(=O)NCC(=O)N[C@@H](CCCCN1C(=O)C=CC1=O)C(=O)OC, 26-membered ring), `CC[C@H](C)[C@@H]1NC(=O)[C@H](C(C)(C)C)NC(=O)[C@@H](NC(=O)OC(C)(C)C)Cc2cn(C(=O)C(C)(C)C)c3c(cccc23)C2=CC(=O)N(CCCC[C@@H](C(=O)OC)NC(=O)CNC1=O)C2=O` [Boc-Trp(Piv)-Tle-Ile-Gly-Lys(Nε-maleimide)-OMe] yielded a ring closure, isolated yield of 34%.
For `COC(=O)[C@@H]1Cc2c[nH]c3c(cccc23)C2C(=O)N(CCCC[C@H](N)C(=O)N[C@@H](CCCNC(=N)N)C(=O)NCC(=O)N[C@@H](CC(=O)O)C(=O)NCC(=O)N1)C(=O)C2SCCC(=O)NCC(=O)N[C@@H](Cc1ccccc1)C(=O)N[C@@H](CC(C)C)C(=O)NCC(=O)N[C@H]1C[C@H](O[C@H]2C[C@](O)(C(=O)CO)Cc3c(O)c4c(c(O)c32)C(=O)c2c(OC)cccc2C4=O)O[C@@H](C)[C@H]1O` (stereo partly drawn) [RGD-GFLG-DOX], the “cytotoxicity (in words)” value was “lower cytotoxicity” in the series on LO2 cells; “stronger cytotoxicity than DOX” in the series with A549 cells; “lower cytotoxicity” in the series on HeLa cells; “lower cytotoxicity” in the series on MIHA cells; “stronger cytotoxicity than DOX” in the series on U87MG cells; “lower cytotoxicity” with MCF-7 cells.

Broadly, the Kd is the equilibrium constant for the complex coming apart.
